# Results published in US10844077B2, “Thiazolyl-containing compounds for treating proliferative diseases” (Dana-Farber Cancer Institute, Inc., priority 2014, dated 2020).
# Like-named read-outs stand apart in the source and are kept apart here.
# Experiments:
# Format in all cases: binding
# [1] = biological target: broad panel of kinases (Homo sapiens, UniProt Q13627); conditions: DYRK1A; 1 μM
# [2] = biological target: broad panel of kinases (Homo sapiens, UniProt Q16659); conditions: ERK3; 1 μM
# [3] = biological target: broad panel of kinases (Homo sapiens, UniProt O14730); conditions: RIOK3; 1 μM
# [4] = biological target: broad panel of kinases (Homo sapiens, UniProt Q9Y2H9); conditions: MAST1; 1 μM
# [5] = biological target: broad panel of kinases (Homo sapiens, UniProt Q8IYT8); conditions: ULK2; 1 μM
# [6] = biological target: broad panel of kinases (Homo sapiens, UniProt Q8IU85); conditions: CAMK1D; 1 μM
# [7] = biological target: broad panel of kinases (Homo sapiens, UniProt Q9P286); conditions: PAK7; 1 μM
# [8] = biological target: broad panel of kinases (Homo sapiens, UniProt Q14004); conditions: CDC2L5; 1 μM
# [9] = biological target: broad panel of kinases (Homo sapiens, UniProt P27361); conditions: ERK1; 1 μM
# [10] = biological target: broad panel of kinases (Homo sapiens, UniProt Q13523); conditions: PRP4; 1 μM
# [11] = biological target: broad panel of kinases (Homo sapiens, UniProt O60674); conditions: JAK2(JH1domain-catalytic); 1 μM
# [12] = biological target: broad panel of kinases (Homo sapiens, UniProt Q9H2K8); conditions: TAOK3; 1 μM
# [13] = biological target: broad panel of kinases (Homo sapiens, UniProt P49674); conditions: CSNK1E; 1 μM
# [14] = biological target: broad panel of kinases (Homo sapiens, UniProt Q13188); conditions: MST2; 1 μM
# [15] = biological target: broad panel of kinases (Homo sapiens, UniProt P36507); conditions: MEK2; 1 μM
# [16] = biological target: broad panel of kinases (Homo sapiens, UniProt P57059); conditions: SIK; 1 μM
# [17] = biological target: broad panel of kinases (Homo sapiens, UniProt P09619); conditions: PDGFRB; 1 μM
# [18] = biological target: broad panel of kinases (Homo sapiens, UniProt P00519, T315I); conditions: 1 μM
# [19] = biological target: broad panel of kinases (Homo sapiens, UniProt O75460); conditions: ERN1; 1 μM
# [20] = biological target: broad panel of kinases (Homo sapiens, UniProt P07332); conditions: FES; 1 μM
# [21] = biological target: broad panel of kinases (Homo sapiens, UniProt Q9UK32); conditions: 1 μM
# [22] = biological target: broad panel of kinases (Homo sapiens, UniProt P07949, V804M); conditions: RET(V804M); 1 μM
# [23] = biological target: broad panel of kinases (Homo sapiens, UniProt Q9P0L2); conditions: MARK1; 1 μM
# [24] = biological target: broad panel of kinases (Homo sapiens, UniProt Q9BWU1); conditions: CDK11; 1 μM
# [25] = biological target: broad panel of kinases (Homo sapiens, UniProt P53350); conditions: PLK1; 1 μM
# [26] = biological target: broad panel of kinases (Homo sapiens, UniProt Q8IWQ3); conditions: BRSK2; 1 μM
# [27] = biological target: broad panel of kinases (Homo sapiens, UniProt Q04759); conditions: PRKCQ; 1 μM
# [28] = biological target: broad panel of kinases (Homo sapiens, UniProt O94921); conditions: PFTK1; 1 μM
# [29] = biological target: broad panel of kinases (Homo sapiens, UniProt P36888); conditions: 1 μM
# [30] = biological target: broad panel of kinases (Homo sapiens, UniProt Q86UX6); conditions: YANK3; 1 μM
# [31] = biological target: broad panel of kinases (Homo sapiens, UniProt Q15303); conditions: ERBB4; 1 μM
# [32] = biological target: broad panel of kinases (Homo sapiens, UniProt Q12851); conditions: MAP4K2; 1 μM
# [33] = biological target: broad panel of kinases (Homo sapiens, UniProt Q9NQU5); conditions: PAK6; 1 μM
# [34] = biological target: broad panel of kinases (Homo sapiens, UniProt Q15569); conditions: TESK1; 1 μM
# [35] = biological target: broad panel of kinases (Homo sapiens, UniProt P07333); conditions: 1 μM
# [36] = biological target: broad panel of kinases (Homo sapiens, UniProt Q6DT37); conditions: DMPK2; 1 μM
# Sequence of broad panel of kinases (Homo sapiens, UniProt P07333) (P07333 20-972 limits assumed): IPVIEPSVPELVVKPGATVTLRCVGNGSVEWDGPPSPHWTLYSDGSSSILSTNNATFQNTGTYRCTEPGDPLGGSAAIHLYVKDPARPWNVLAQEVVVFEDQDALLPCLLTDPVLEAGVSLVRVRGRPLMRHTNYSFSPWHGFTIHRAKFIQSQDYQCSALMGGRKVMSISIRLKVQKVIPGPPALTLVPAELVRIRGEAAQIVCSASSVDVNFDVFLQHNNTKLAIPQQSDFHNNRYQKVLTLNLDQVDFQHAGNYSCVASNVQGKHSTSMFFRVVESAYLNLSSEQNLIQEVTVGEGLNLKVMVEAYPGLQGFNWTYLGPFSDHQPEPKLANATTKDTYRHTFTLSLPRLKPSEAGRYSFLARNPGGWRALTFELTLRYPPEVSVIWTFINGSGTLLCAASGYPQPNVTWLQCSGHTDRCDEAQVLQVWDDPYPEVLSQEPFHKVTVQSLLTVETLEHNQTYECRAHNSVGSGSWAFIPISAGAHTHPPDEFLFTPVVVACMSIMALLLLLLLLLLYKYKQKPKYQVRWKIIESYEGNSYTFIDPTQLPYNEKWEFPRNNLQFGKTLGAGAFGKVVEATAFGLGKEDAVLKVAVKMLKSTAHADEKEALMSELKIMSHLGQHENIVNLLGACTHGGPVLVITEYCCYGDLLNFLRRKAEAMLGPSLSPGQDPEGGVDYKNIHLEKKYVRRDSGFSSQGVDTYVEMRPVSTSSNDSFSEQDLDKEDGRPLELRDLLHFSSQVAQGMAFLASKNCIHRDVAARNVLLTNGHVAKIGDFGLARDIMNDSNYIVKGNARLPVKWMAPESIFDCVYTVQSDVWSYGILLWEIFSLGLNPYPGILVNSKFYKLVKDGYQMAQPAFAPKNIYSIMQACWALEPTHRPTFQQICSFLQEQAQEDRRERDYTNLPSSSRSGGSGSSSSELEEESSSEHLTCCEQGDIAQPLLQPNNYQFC
# Sequence of broad panel of kinases (Homo sapiens, UniProt P36888) (P36888 27-993 limits assumed): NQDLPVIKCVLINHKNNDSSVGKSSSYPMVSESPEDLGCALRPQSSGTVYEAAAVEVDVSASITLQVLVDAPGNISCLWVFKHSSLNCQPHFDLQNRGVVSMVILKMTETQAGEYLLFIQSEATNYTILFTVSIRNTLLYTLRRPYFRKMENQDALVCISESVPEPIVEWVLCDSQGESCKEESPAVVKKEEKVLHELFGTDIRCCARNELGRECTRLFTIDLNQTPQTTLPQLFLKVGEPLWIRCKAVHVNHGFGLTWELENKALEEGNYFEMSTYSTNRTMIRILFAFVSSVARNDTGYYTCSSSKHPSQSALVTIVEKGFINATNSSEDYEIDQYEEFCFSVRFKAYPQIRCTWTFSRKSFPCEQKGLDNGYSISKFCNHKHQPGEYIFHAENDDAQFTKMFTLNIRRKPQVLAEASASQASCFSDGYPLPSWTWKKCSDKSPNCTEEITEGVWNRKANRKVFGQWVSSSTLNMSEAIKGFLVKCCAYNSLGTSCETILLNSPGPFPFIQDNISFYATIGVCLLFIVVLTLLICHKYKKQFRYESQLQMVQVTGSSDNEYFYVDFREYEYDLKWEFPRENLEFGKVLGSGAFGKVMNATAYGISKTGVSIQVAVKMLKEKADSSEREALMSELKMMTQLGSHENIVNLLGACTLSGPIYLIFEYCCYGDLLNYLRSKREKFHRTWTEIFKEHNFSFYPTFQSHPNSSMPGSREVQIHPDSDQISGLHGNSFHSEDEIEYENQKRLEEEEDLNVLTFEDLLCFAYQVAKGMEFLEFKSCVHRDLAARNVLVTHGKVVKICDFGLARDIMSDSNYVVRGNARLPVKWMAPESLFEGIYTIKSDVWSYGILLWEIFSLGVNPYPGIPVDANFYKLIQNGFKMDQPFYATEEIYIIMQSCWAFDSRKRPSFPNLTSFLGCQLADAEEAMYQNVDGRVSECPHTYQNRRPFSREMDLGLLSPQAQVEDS
# Sequence of broad panel of kinases (Homo sapiens, UniProt Q13523) (Q13523 2-1007 limits assumed): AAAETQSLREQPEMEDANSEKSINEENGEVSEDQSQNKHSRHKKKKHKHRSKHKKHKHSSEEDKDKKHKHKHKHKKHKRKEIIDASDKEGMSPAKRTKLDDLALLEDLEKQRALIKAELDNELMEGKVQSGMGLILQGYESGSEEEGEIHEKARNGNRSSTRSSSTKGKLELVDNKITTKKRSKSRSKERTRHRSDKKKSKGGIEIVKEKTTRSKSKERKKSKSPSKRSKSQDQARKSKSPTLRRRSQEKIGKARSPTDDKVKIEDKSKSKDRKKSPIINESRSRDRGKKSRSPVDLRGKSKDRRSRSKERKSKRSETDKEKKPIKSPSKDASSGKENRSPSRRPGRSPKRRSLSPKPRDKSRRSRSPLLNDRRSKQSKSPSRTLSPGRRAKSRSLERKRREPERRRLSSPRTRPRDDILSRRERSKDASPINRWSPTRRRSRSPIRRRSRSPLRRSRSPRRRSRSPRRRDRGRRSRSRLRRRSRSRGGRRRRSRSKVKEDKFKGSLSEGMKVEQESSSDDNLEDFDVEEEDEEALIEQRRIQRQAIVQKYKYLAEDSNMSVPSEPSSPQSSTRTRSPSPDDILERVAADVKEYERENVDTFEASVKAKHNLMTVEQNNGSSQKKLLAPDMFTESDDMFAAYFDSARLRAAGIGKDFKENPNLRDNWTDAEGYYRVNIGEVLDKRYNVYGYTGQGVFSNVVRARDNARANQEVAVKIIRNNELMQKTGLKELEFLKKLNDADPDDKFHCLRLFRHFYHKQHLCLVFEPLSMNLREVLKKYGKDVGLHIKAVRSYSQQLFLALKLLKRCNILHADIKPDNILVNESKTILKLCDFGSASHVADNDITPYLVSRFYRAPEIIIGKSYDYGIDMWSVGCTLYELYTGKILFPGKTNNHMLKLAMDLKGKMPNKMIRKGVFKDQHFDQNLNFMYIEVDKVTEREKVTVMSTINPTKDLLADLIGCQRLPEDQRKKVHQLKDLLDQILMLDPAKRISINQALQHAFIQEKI
# Sequence of broad panel of kinases (Homo sapiens, UniProt O75460) (O75460 19-977 limits assumed): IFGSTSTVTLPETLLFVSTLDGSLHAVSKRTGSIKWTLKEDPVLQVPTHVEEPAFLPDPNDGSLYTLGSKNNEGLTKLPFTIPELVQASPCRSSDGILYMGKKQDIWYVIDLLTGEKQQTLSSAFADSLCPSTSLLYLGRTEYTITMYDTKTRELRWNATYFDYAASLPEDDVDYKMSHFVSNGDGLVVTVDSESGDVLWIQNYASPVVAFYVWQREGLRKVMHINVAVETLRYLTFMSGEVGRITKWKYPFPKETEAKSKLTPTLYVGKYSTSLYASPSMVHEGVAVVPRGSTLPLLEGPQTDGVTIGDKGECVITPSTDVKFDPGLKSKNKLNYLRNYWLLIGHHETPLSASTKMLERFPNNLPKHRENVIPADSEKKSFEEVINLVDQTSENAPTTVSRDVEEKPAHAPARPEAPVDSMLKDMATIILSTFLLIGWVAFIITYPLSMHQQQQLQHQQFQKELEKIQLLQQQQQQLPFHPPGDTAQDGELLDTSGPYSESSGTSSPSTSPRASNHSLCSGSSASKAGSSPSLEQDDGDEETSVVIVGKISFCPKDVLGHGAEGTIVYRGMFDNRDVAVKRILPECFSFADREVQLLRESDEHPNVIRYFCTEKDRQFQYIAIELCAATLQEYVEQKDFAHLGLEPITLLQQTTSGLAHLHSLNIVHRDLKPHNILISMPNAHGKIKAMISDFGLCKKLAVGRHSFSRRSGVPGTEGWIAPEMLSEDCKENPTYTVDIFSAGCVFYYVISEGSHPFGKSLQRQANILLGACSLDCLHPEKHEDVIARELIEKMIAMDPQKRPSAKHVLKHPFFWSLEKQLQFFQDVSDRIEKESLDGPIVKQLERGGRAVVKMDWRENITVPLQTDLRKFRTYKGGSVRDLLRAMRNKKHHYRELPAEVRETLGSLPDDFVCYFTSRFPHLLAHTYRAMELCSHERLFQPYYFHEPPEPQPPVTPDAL
# Sequence of broad panel of kinases (Homo sapiens, UniProt P53350) (P53350 2-603 limits assumed): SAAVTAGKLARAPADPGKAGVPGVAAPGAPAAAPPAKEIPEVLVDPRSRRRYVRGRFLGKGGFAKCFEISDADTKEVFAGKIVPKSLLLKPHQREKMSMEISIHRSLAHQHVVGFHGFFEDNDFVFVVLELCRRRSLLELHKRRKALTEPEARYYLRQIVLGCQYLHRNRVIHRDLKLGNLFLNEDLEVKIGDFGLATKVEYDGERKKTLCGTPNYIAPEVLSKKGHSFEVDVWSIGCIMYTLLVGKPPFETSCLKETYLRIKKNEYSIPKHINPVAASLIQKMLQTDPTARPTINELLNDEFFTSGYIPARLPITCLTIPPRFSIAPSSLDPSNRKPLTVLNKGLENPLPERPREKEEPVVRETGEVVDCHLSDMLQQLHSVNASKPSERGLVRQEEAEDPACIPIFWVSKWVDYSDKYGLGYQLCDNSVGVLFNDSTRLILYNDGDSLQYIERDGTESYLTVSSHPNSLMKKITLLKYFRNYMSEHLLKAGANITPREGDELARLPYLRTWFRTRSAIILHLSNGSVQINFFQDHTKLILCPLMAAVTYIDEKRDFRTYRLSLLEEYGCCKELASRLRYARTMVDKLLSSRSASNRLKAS
# Sequence of broad panel of kinases (Homo sapiens, UniProt P27361) (P27361 2-379 limits assumed): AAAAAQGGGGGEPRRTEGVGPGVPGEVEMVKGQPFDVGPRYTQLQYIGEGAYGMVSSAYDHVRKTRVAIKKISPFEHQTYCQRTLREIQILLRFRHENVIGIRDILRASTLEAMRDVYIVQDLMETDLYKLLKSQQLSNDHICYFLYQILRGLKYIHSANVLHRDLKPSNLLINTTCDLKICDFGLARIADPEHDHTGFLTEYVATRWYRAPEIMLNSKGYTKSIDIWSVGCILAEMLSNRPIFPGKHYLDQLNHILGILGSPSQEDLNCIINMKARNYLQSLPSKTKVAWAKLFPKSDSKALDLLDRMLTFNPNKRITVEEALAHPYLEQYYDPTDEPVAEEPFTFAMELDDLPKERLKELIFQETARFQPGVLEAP
Compound,percent of control binding remaining (lower = stronger binding) [1] [%],percent of control binding remaining (lower = stronger binding) [2] [%],percent of control binding remaining (lower = stronger binding) [3] [%],percent of control binding remaining (lower = stronger binding) [4] [%],percent of control binding remaining (lower = stronger binding) [5] [%],percent of control binding remaining (lower = stronger binding) [6] [%],percent of control binding remaining (lower = stronger binding) [7] [%],percent of control binding remaining (lower = stronger binding) [8] [%],percent of control binding remaining (lower = stronger binding) [9] [%],percent of control binding remaining (lower = stronger binding) [10] [%],percent of control binding remaining (lower = stronger binding) [11] [%],percent of control binding remaining (lower = stronger binding) [12] [%],percent of control binding remaining (lower = stronger binding) [13] [%],percent of control binding remaining (lower = stronger binding) [14] [%],percent of control binding remaining (lower = stronger binding) [15] [%],percent of control binding remaining (lower = stronger binding) [16] [%],percent of control binding remaining (lower = stronger binding) [19] [%],percent of control binding remaining (lower = stronger binding) [20] [%],percent of control binding remaining (lower = stronger binding) ([21]; RSK4(Kin.Dom.1-N-terminal)) [%],percent of control binding remaining (lower = stronger binding) ([21]; RSK4(Kin.Dom.2-C-terminal)) [%],also measured
C=CC(=O)N1CC[C@H](Nc2nc(CN3CCOCC3)cc(Nc3ncc(C(=O)Nc4c(C)cccc4C)s3)n2)C1 [Example I-2],100,100,98,98,89,100,96,100,97,95,65,81,84,69,78,0.8,83,98,100,100,percent of control binding remaining (lower = stronger binding) [17]: 0%; percent of control binding remaining (lower = stronger binding) ([18]; ABL1(T315I)-nonphosphorylated): 95%; percent of control binding remaining (lower = stronger binding) ([18]; ABL1(T315I)-phosphorylated): 69%; percent of control binding remaining (lower = stronger binding) [22]: 100%; percent of control binding remaining (lower = stronger binding) [23]: 97%; percent of control binding remaining (lower = stronger binding) [24]: 98%; percent of control binding remaining (lower = stronger binding) [25]: 92%; percent of control binding remaining (lower = stronger binding) [26]: 100%; percent of control binding remaining (lower = stronger binding) [27]: 94%; percent of control binding remaining (lower = stronger binding) [28]: 72%; percent of control binding remaining (lower = stronger binding) ([29]; FLT3-autoinhibited): 100%; percent of control binding remaining (lower = stronger binding) ([29]; FLT3): 100%; percent of control binding remaining (lower = stronger binding) [30]: 83%; percent of control binding remaining (lower = stronger binding) [31]: 0.6%; percent of control binding remaining (lower = stronger binding) [32]: 87%; percent of control binding remaining (lower = stronger binding) [33]: 93%; percent of control binding remaining (lower = stronger binding) [34]: 60%; percent of control binding remaining (lower = stronger binding) ([35]; CSF1R-autoinhibited): 1.4%; percent of control binding remaining (lower = stronger binding) ([35]; CSF1R): 2.6%; percent of control binding remaining (lower = stronger binding) [36]: 51%
C=CC(=O)N1CC[C@H](Nc2nccc(Nc3ncc(C(=O)Nc4c(C)cccc4C)s3)n2)C1 [Example I-3],100,89,90,93,91,90,97,100,95,100,82,91,96,94,100,0.4,76,93,100,97,% change compared to control [17]: 0%; % change compared to control ([18]; ABL1(T315I)-nonphosphorylated): 100%; % change compared to control ([18]; ABL1(T315I)-phosphorylated): 70%; percent of control binding remaining (lower = stronger binding) [22]: 100%; percent of control binding remaining (lower = stronger binding) [23]: 93%; percent of control binding remaining (lower = stronger binding) [24]: 83%; percent of control binding remaining (lower = stronger binding) [25]: 83%; percent of control binding remaining (lower = stronger binding) [26]: 95%; percent of control binding remaining (lower = stronger binding) [27]: 98%; percent of control binding remaining (lower = stronger binding) [28]: 99%; percent of control binding remaining (lower = stronger binding) ([29]; FLT3-autoinhibited): 100%; percent of control binding remaining (lower = stronger binding) ([29]; FLT3): 84%; percent of control binding remaining (lower = stronger binding) [30]: 91%; percent of control binding remaining (lower = stronger binding) [31]: 0.2%; percent of control binding remaining (lower = stronger binding) [32]: 91%; percent of control binding remaining (lower = stronger binding) [33]: 84%; percent of control binding remaining (lower = stronger binding) [34]: 88%; percent of control binding remaining (lower = stronger binding) ([35]; CSF1R-autoinhibited): 3.2%; percent of control binding remaining (lower = stronger binding) ([35]; CSF1R): 3.3%; percent of control binding remaining (lower = stronger binding) [36]: 66%
